# Target: T1, Interstitial collagenase (Homo sapiens, UniProt P03956)
# T1 sequence (P03956 whole entry): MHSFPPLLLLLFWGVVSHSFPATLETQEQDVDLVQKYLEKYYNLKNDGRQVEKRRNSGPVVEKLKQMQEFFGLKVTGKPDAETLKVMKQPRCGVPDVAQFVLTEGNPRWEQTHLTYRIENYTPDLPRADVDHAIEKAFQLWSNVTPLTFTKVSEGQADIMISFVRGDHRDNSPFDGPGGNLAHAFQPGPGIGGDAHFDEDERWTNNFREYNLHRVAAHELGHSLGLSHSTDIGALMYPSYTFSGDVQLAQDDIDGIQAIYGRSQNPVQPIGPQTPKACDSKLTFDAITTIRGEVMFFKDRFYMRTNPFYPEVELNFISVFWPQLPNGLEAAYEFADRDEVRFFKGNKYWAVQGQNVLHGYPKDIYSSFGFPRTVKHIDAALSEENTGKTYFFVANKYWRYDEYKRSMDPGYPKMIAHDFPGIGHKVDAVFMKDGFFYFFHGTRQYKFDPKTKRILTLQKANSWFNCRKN
# Assay: Inhibition of MMP-1
# Conditions: not given
row,IC50 [nM],Structure (SMILES)
1,180,C[C@@H]1[C@H](c2ccccc2)[C@]1(NS(=O)(=O)c1ccc(-n2cc(Cl)cn2)s1)C(=O)O (racemic)

# Test system: not listed separately
# Assay: Half life in rat
# Format: ADME, organism-based
# Conditions: in vivo
row,half-life [h],Structure (SMILES)
1,4.5,C[C@@H]1[C@H](c2ccccc2)[C@]1(NS(=O)(=O)c1ccc(-n2cc(Cl)cn2)s1)C(=O)O (racemic)

# Target: T2, A disintegrin and metalloproteinase with thrombospondin motifs 5 (Homo sapiens) (UniProt Q9UNA0)
# T2 sequence (whole entry): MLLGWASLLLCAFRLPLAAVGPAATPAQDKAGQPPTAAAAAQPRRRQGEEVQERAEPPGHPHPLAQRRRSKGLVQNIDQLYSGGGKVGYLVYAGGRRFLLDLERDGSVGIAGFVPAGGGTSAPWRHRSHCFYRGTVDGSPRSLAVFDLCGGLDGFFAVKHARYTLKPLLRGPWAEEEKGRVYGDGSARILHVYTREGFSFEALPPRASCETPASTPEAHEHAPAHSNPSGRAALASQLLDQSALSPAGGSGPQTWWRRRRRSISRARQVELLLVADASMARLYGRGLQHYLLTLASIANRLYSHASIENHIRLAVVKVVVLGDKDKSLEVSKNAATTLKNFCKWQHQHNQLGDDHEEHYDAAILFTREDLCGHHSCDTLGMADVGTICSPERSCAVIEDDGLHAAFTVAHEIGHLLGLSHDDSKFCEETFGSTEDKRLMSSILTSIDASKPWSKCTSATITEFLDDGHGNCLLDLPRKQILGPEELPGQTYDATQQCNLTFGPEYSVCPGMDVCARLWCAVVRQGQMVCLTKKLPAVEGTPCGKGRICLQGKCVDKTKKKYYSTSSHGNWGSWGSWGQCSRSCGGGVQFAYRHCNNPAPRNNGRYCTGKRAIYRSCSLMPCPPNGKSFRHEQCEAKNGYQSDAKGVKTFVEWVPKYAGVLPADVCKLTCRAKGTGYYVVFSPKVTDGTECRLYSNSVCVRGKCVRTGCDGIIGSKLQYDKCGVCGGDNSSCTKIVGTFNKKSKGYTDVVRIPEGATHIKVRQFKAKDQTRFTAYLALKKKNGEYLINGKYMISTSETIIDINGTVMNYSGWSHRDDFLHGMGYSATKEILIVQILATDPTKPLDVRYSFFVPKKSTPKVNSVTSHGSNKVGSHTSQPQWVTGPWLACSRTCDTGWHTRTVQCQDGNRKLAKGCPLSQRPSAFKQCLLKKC
# Assay: Inhibition of ADAMTS5 at 0.3 uM
# Conditions: not given
row,inhibition [%],Structure (SMILES)
1,18,COC(=O)c1cn(CCN([C@@]2(C(=O)O)C[C@@H]2c2ccccc2)S(=O)(=O)c2ccc(-c3ccc(Cl)cc3)cc2)cn1

# Target: T3, A disintegrin and metalloproteinase with thrombospondin motifs 5 (Homo sapiens, UniProt Q9UNA0)
# T3 sequence (Q9UNA0 whole entry): T2 sequence (whole entry)
# Assay: Inhibition of ADAMTS5
# Conditions: not given
row,Structure (SMILES),IC50 [nM]
1,O=C(O)[C@]1(NS(=O)(=O)c2ccc(-c3ccc(Cl)cn3)s2)C[C@@H]1c1ccccc1,100
2,O=C(O)[C@]1(NS(=O)(=O)c2ccc(-c3ccc(Cl)cc3)s2)C[C@@H]1c1ccccc1,60
3,O=C(O)[C@]1(NS(=O)(=O)c2ccc(-c3cccc(Cl)c3)s2)C[C@@H]1c1ccccc1,94
4,C[C@@H]1[C@H](c2ccccc2)[C@]1(NS(=O)(=O)c1ccc(-c2ccc(Cl)cc2)s1)C(=O)O,21
5,C[C@]1(c2ccccc2)C[C@@]1(NS(=O)(=O)c1ccc(-c2ccc(Cl)cc2)s1)C(=O)O,10
6,O=C(O)[C@@]1(NS(=O)(=O)c2ccc(-c3ccc(Cl)cc3)cc2)C[C@H]1c1ccccc1,210
7,O=C(O)[C@]1(NS(=O)(=O)c2ccc(-c3ccc(Cl)cc3)cc2)C[C@@H]1c1ccccc1,84
8,C[C@H]1[C@H](c2ccccc2)[C@]1(NS(=O)(=O)c1ccc(-c2ccc(Cl)cc2)s1)C(=O)O (racemic),120

# Continued, values first:
row,IC50 [nM],Structure (SMILES)
1,80,O=C(O)[C@]1(NS(=O)(=O)c2ccc(-n3cc(Cl)cn3)s2)C[C@@H]1c1ccccc1
2,32,C[C@]1(c2ccccc2)C[C@@]1(NS(=O)(=O)c1ccc(-n2cc(Cl)cn2)s1)C(=O)O
3,800,C[C@@H]1[C@H](C)[C@]1(NS(=O)(=O)c1ccc(-n2cc(Cl)cn2)s1)C(=O)O
4,7.4,C[C@@H]1[C@H](c2ccccc2)[C@]1(NS(=O)(=O)c1ccc(-n2cc(Cl)cn2)s1)C(=O)O (racemic)
5,770,CC(C)[C@H]1C[C@@]1(NS(=O)(=O)c1ccc(-n2cc(Cl)cn2)s1)C(=O)O (racemic)
6,360,O=C(O)[C@]1(NS(=O)(=O)c2ccc(-n3cc(Cl)cn3)s2)C[C@@H]1C1CCCCC1 (racemic)

# Test system: not listed separately
# Assay: Oral bioavailability in rat
# Format: ADME, organism-based
# Conditions: in vivo
row,bioavailability [%],Structure (SMILES)
1,81,C[C@@H]1[C@H](c2ccccc2)[C@]1(NS(=O)(=O)c1ccc(-n2cc(Cl)cn2)s1)C(=O)O (racemic)

# Target: Disintegrin and metalloproteinase domain-containing protein 17 (Homo sapiens, UniProt P78536)
# Assay: Inhibition of TACE
# Conditions: not given
# Sequence of Disintegrin and metalloproteinase domain-containing protein 17 (P78536 whole entry, the tested form may be a part): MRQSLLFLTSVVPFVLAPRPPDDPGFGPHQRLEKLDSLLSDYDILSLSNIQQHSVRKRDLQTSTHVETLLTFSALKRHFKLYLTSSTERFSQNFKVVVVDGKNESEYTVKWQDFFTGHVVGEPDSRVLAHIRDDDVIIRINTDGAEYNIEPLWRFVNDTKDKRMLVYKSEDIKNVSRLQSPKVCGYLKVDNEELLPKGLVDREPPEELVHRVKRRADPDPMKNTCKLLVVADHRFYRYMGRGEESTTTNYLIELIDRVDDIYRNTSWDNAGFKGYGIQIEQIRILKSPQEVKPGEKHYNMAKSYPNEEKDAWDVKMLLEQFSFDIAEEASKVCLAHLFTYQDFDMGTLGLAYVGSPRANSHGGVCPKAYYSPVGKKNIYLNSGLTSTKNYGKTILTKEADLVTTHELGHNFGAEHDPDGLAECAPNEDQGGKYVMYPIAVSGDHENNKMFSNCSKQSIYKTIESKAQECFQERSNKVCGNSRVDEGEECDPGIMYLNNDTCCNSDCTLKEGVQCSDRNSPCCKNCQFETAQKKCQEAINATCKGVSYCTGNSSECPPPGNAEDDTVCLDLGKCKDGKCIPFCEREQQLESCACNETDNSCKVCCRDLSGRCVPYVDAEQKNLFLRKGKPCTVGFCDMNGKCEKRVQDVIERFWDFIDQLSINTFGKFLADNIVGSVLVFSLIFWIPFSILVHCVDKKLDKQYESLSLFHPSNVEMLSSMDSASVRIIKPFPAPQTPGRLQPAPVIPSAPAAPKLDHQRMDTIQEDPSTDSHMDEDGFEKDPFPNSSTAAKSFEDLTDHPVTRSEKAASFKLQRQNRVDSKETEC
row,IC50 [nM],Structure (SMILES)
1,4000,C[C@@H]1[C@H](c2ccccc2)[C@]1(NS(=O)(=O)c1ccc(-n2cc(Cl)cn2)s1)C(=O)O (racemic)

# Target: T2, A disintegrin and metalloproteinase with thrombospondin motifs 5 (Homo sapiens)
# Assay: Inhibition of ADAMTS5 at 1 uM
# Conditions: not given
row,inhibition [%],Structure (SMILES)
1,48,O=C(O)[C@]1(NS(=O)(=O)c2ccc(-c3ccccc3Cl)s2)C[C@@H]1c1ccccc1
2,19.6,CC1(C)C[C@@]1(NS(=O)(=O)c1ccc(-n2cc(Cl)cn2)s1)C(=O)O (racemic)
3,3.5,C[C@H]1C[C@@]1(NS(=O)(=O)c1ccc(-n2cc(Cl)cn2)s1)C(=O)O (racemic)
4,-0.84,O=C(O)[C@]1(NS(=O)(=O)c2ccc(-n3cc(Cl)cn3)s2)CC[C@@H]1c1ccccc1 (racemic)
5,25,O=C(O)[C@]1(NS(=O)(=O)c2ccc(-n3cc(Cl)cn3)s2)C[C@@H]1Cc1ccccc1 (racemic)

# — ChEMBL document CHEMBL1154291, “Synthesis and SAR of 2-phenyl-1-sulfonylaminocyclopropane carboxylates as ADAMTS-5 (Aggrecanase-2) inhibitors” (Bioorg Med Chem Lett, 2009)
